# In ChEMBL document CHEMBL1140179, “Rhabdastrellins A-F, isomalabaricane triterpenes from the marine sponge Rhabdastrella aff. distincta” (J Nat Prod, 2008):
# Tested on: HL-60
# Assay: Cytotoxicity against human HL60 cells
# Type: functional, cell-based
row,Structure (SMILES),IC50
1,COC(=O)/C(C)=C/C=C/C(C)=C/C=C/C(C)=C1/C(=O)C[C@H]2[C@@]3(C)CC[C@H](O)C(C)(C)[C@@H]3CC[C@]12C [RHABDASTRELLIN E],> 10 µg/mL
2,COC(=O)/C(C)=C/C=C/C(C)=C/C=C/C(C)=C1\C(=O)C[C@H]2[C@@]3(C)CC[C@H](O)C(C)(C)[C@@H]3CC[C@]12C [RHABDASTRELLIN F],> 10 µg/mL
3,C/C(C(=O)/C=C/C(C)=C/C=C/C(C)(C)O)=C1/C(=O)C[C@H]2[C@@]3(C)CC[C@H](O)[C@](C)(CO)[C@@H]3CC[C@]12C [RHABDASTRELLIN D],> 10 µg/mL
4,C\C(=C/C=C/C(C)=C1/C(=O)C[C@H]2[C@@]3(C)CC[C@H](O)[C@](C)(CO)[C@@H]3CC[C@]12C)c1ccc(C)c(=O)o1 [RHABDASTRELLIN A],4.2 µg/mL
5,CC(/C=C/C=C(C)/C=C/C(O)C(C)(C)O)=C1/C(=O)C[C@H]2[C@@]3(C)CC[C@H](O)[C@](C)(CO)[C@@H]3CC[C@]12C (stereo partly specified) [RHABDASTRELLIN B],> 10 µg/mL
6,CC(/C=C/C(O)C(C)(C)O)=C\C=C\C(C)=C1\C(=O)C[C@H]2[C@@]3(C)CC[C@H](O)[C@](C)(CO)[C@@H]3CC[C@]12C (stereo partly specified) [RHABDASTRELLIN C],> 10 µg/mL
